The values below come from patent US9221861B2, “Multivalent [beta]-1-2-linked mannose oligosaccharides as immunostimulatory compounds and uses thereof” (ABO AKADEMI UNIVERSITY, priority 2011, dated 2015).

The structures appear in SMILES notation. Entries after “also recorded” stand apart in the source; their conditions may differ.

Holding throughout (format): cell-based, human
Experiment [1] deals with peripheral blood mononuclear cells (PBMC). Description: Induction of cytokines by synthetic β-1,2-linked mannooligosaccharide compounds in PBMC (Example 1). Conditions: PBMC of three atopic subjects, 72 h, 20 and 200 μg/ml (FIG. 5), LINCOplex/Luminex. As to the method:
(§1) The human PBMC were isolated from heparinized blood samples with Ficoll (Ficoll-Paque, Amersham Pharmacia Biotech, Sweden) density gradient centrifugation. The PBMC were washed twice with Hanks' balanced salt solution (HBSS) and suspended in RPMI medium supplemented 5% autologous serum, 2 mM L-glutamine (Fluka Biochemica, Germany) and 100 µg/ml gentamycin (Biological Industries, Israel). The cell suspension was diluted in the RPMI-based culture medium to 10^6 cells/ml and applied on 48-well culture plates (Costar, Cambridge, Mass., USA).
The synthetic oligosaccharides were tested for the production of cytokines IL-4, IL-5, IL-10 and IFN-γ, in peripheral blood mononuclear cells (PBMC) samples of three atopic subjects. The PBMC were stimulated by adding solubilized oligosaccharides in cell culture suspension. The synthetic polyvalent β-1,2-linked oligosaccharides used in this example are a molecule according to the compound of formula (IV) of the invention (coded CM-C8-2010), trivalent monosaccharide (R═H) coded CM-C4-2010 and pentavalent disaccharide (R═O) coded CM-C7-2010. The cytokine responses from PBMC were detected 72 h after beginning of the stimulation by measuring cytokine secretion with high-sensitivity human cytokine LINCOplex™-kits (LINCO Research, St. Charles, Mo., USA) using Luminex^100™ instrumentation. The assays were performed in accordance with the manufacturer's protocol by employing Luminex technology.

In experiment [2] the test system is allergen (birch) stimulated PBMC culture. Description: Effect on allergen (birch) induced IL-5 production in PBMC culture (Example 2). As to conditions: PBMC of four birch allergic rhinitis patients; birch extract 50 µg/ml; CM-C8-2010 20 µg/ml; 72 hours (FIG. 6). As to the method: as §1
Trivalent acetylated monosaccharide coded CM-C4-2011 was used as a negative control. The PBMC were isolated and cultured as described above. Birch whole allergen extract was used at a concentration of 50 µg/ml and CM-C8-2010 at a concentration of 20 µg/ml. The cultures were incubated for 72 hours. Following stimulation, the production of IL-5 was measured with LINCOplex™-kits using Luminex100™ instrumentation.

Experiment [3] shares this test system. Description: Comparison with prior art adjuvants in suppression of birch allergen-induced IL-4, IL-5 and IL-13 in PBMC (Example 3). As to conditions: 24 hours; for Mean (SD) percentage of Birch induced cytokine response, IL-5: 15 subjects; for Mean (SD) percentage of Birch induced cytokine response, IL-13: 17 subjects; for Mean (SD) percentage of Birch induced cytokine response, IL-4: 19 subjects. The method, then:
as §1
The effect of synthetic molecule according to the compound of formula (IV) of the invention coded CM-C8-2010 on the production of IL-4, IL-5 and IL-13, the main Th2-type cytokines promoting allergic inflammation, was studied in an allergen (birch) stimulated PBMC culture of 26 birch allergic patients with allergic rhinitis. The effect was compared to that of 3-deacylated monophosphoryl lipid A (MPL), the non-toxic derivative of lipopolysaccharide of Salmonella minnesota (LPS), and immunostimulatory bacterial DNA sequence (CpG-ODN-1). These molecules have been clinically successfully tested as adjuvants in allergen immunotherapy. Another bacterial DNA sequence (CpG-ODN-2) without immunostimulatory activity was used as a negative control. The PBMC were collected during a strong birch pollen season, were isolated and cultured as described above. Birch whole allergen extract was used at a concentration of 50 µg/ml and CM-C8-2010 at concentrations 200 and 20 µg/ml. CpG-ODN-1 and CpG-ODN-2 were used at a concentration 5 µg/ml and MPL at a concentration 10 µg/ml based on earlier published experiments. The cultures were incubated for 24 hours. Following stimulation, the productions of IL-4, IL-5 and IL-13 were measured with LINCOplex™-kits using Luminex100™ instrumentation. For analysis only the cultures with strong induced cytokine responses were included.

Experiment [4] has as its system peripheral blood mononuclear cells (PBMC). Description: Induction of cytokines by synthetic oligosaccharide RP-I-82 in PBMC (Example 4). Conditions: PBMC of three subjects, 24 hours. The method, then:
as §1
The synthetic oligosaccharide coded RP-I-82 was tested for the production of cytokines IL-4, IL-5, IL-10, IL-13, TNF and IFN-γ, in peripheral blood mononuclear cells (PBMC) samples of three subjects. The PBMC were stimulated by adding solubilized oligosaccharide in cell culture suspension. The synthetic oligovalent 3-1,2-linked oligosaccharide used in this example was a molecule according to the compound of formula (IV) of the invention (coded RP-I-82). A positive control was acid hydrolyzed Candida albicans mannan (CAM). The cytokine responses from PBMC were detected 24 hours after beginning of the stimulation by measuring cytokine secretion with high-sensitivity human cytokine LINCOplex™-kits (LINCO Research, St. Charles, Mo., USA) using Luminex^100™ instrumentation. The assays were performed in accordance with the manufacturer's protocol by employing Luminex technology.

[5] abbreviates: PBMC of birch allergic patients.

On to `CC(=O)OCC1O[C@@H](OC2C(OC(C)=O)[C@H](OC(C)=O)C(COC(C)=O)O[C@@H]2OCCn2cc(COCC(COCc3cn(CCO[C@H]4OC(COC(C)=O)[C@@H](OC(C)=O)C(OC(C)=O)C4O[C@@H]4OC(COC(C)=O)[C@@H](OC(C)=O)C(OC(C)=O)C4OC(C)=O)nn3)OCc3cn(CCO[C@H]4OC(COC(C)=O)[C@@H](OC(C)=O)C(OC(C)=O)C4O[C@@H]4OC(COC(C)=O)[C@@H](OC(C)=O)C(OC(C)=O)C4OC(C)=O)nn3)nn2)C(OC(C)=O)C(OC(C)=O)[C@@H]1OC(C)=O` (stereo partly drawn) [CM-C8-2010, 1,2,3-tris[1-[(2,3,4,6-tetra-O-acetyl-β-D-mannopyranosyl)-(1→2)-(3,4,6-tri-O-acetyl-α-D-mannopyranosyloxyethyl)]-4-[methyl-1-oxy]triazolyl]propane], for which, in experiment [1], the “production of IFN-γ (inducer strength)” value was “strong inducer” and the “production of IL-10 (inducer strength)” value is listed as “strong inducer”. For the same compound, in experiment [1] (listed as formula (IV)), the “production of IFN-γ (inducer strength)” value is on record as “most active substance” and the “production of IL-10 (inducer strength)” value is recorded as “most active substance”. Further, the “suppression of birch allergen induced IL-5 response” value in experiment [2] is reported as “effectively suppressed”. In experiment [3] (20 μg/ml), the “Mean (SD) percentage of Birch induced cytokine response, IL-5” value is listed as 86.0 (25.9) %; the “Mean (SD) percentage of Birch induced cytokine response, IL-13” value was 85.9 (97.5) %; the “Mean (SD) percentage of Birch induced cytokine response, IL-4” value is recorded as 90.8 (22.7) %. For the same compound, in experiment [3] (200 μg/ml), the “Mean (SD) percentage of Birch induced cytokine response, IL-5” value is 70.6 (22.6) %; the “Mean (SD) percentage of Birch induced cytokine response, IL-13” value is given as 58.5 (48.0) %; the “Mean (SD) percentage of Birch induced cytokine response, IL-4” value is listed as 78.6 (24.3) %. Besides, in experiment [3] (setting [5]), the “suppression of birch allergen induced IL-4 response (in words)” value is listed as “more effectively than CpG-ODN-1 or MPL”, the “suppression of birch allergen induced IL-5 response (in words)” value is reported as “more effectively than CpG-ODN-1 or MPL” and the “suppression of birch allergen induced IL-13 response (in words)” value is “more effectively than CpG-ODN-1 or MPL”.
Consider `CC(=O)OC[C@H]1O[C@@H](O[C@@H]2[C@@H](OCCCn3cc(COCC(COCc4cn(CCCO[C@H]5O[C@H](COC(C)=O)[C@@H](OC(C)=O)[C@H](OC(C)=O)[C@@H]5O[C@@H]5O[C@H](COC(C)=O)[C@@H](OC(C)=O)[C@H](OC(C)=O)[C@@H]5OC(C)=O)nn4)OCc4cn(CCCO[C@H]5O[C@H](COC(C)=O)[C@@H](OC(C)=O)[C@H](OC(C)=O)[C@@H]5O[C@@H]5O[C@H](COC(C)=O)[C@@H](OC(C)=O)[C@H](OC(C)=O)[C@@H]5OC(C)=O)nn4)nn3)O[C@H](COC(C)=O)[C@@H](OC(C)=O)[C@@H]2OC(C)=O)[C@@H](OC(C)=O)[C@@H](OC(C)=O)[C@@H]1OC(C)=O` (stereo partly drawn) [RP-I-82, 1,2,3-tris[1-[(2,3,4,6-tetra-O-acetyl-β-D-mannopyranosyl)-(1→2)-(3,4,6-tri-O-acetyl-α-D-mannopyranosyloxypropyl)]-4-[methyl-1-oxy]triazolyl]propane], for which, in experiment [4] (20 μg/ml), the “Production of cytokines, mean (SD), IFN-γ” value is reported as 10 (15) pg/ml; the “Production of cytokines, mean (SD), IL-4” value was 2.6 (0.8) pg/ml; the “Production of cytokines, mean (SD), IL-5” value is listed as 0.1 (0.2) pg/ml; the “Production of cytokines, mean (SD), IL-10” value was 110 (109) pg/ml. For the same compound, in experiment [4] (20 μg/ml), the “Production of cytokines, mean (SD), IL-13” value was 0.6 (0.2) pg/ml and the “Production of cytokines, mean (SD), TNF” value is recorded as 52 (26) pg/ml. Further, in experiment [4] (200 μg/ml), the “Production of cytokines, mean (SD), IFN-γ” value is recorded as 18 (25) pg/ml; the “Production of cytokines, mean (SD), IL-4” value is listed as 2.7 (0.2) pg/ml; the “Production of cytokines, mean (SD), IL-5” value is 0.2 (0.2) pg/ml; the “Production of cytokines, mean (SD), IL-10” value is 843 (253) pg/ml. Also, in experiment [4] (200 μg/ml), the “Production of cytokines, mean (SD), IL-13” value was 0.5 (0.0) pg/ml and the “Production of cytokines, mean (SD), TNF” value is 295 (146) pg/ml. For the same compound, in experiment [4], the “IFN-γ production, inducer strength (in words)” value is “moderate inducer”; the “IL-4 production (in words)” value is reported as “not seen at all”; the “IL-5 production (in words)” value is on record as “not seen at all”; the “IL-10 production, inducer strength (in words)” value is “strong inducer; also recorded: considerably higher than for the control”. For the same compound, in experiment [4], the “IL-13 production (in words)” value is given as “not seen at all”; the “TNF production, inducer strength (in words)” value is on record as “strong inducer; also recorded: considerably higher than for the control”; the “pattern of cytokine induction in comparison to the blank sample (no stimulation)” value was “selective induction”.
